From patent US11161839B2, “2-quinolone derived inhibitors of BCL6” (Cancer Research Technology Limited, priority 2017, dated 2021) come the findings set out here.

The target in assay [1] is human BCL6 BTB domain (Trx-6xHis-BCL6) (Homo sapiens (Human), UniProt P41182). Put plainly: HTRF in vitro assay (BCL6 BTB domain / BCOR-AF633 peptide). Type of assay: binding. The conditions noted are these: for IC50: read-out: HTRF pIC50 (converted). (In TR-FRET formats the signal depends on donor and acceptor labels being close together.)
Protocol: The % inhibition at each concentration was calculated by normalising FRET ratio to the appropriate high (DMSO with all reagents) and low (DMSO without BCL6) controls.
Assay [2] has as its target BCL6-NCOR2(SMRT) corepressor protein-protein interaction (Homo sapiens (Human), UniProt P41182). Nature of the assay: NanoBRET cell assay in transfected HEK293T cells. In kind it is cell-based. The conditions noted are these: further generated data (Table 2b); HEK293T cells, 6 hr; read-out: NanoBRET cell pIC50 (converted). In general terms: Bioluminescence resonance energy transfer reports proximity on the nanometre scale.
Description: A cellular nano-Bioluminescence Resonance Energy Transfer (nanoBRET) assay (Promega NanoBRET Nano-Glo Detection System, catalogue number N1662) was used to detect inhibition of the BCL6-NCOR2(SMRT) corepressor protein-protein interaction. DNA encoding full length BCL6 and NCOR2 were inserted into pFC32K.NanoLuc and pFC14K.HaloTag vectors (Promega) to produce C-terminal tagged fusion proteins BCL6-nanoLuc and NCOR2-HaloTag, respectively. […] Frozen transfected HEK293T cells were thawed, centrifuged and freezing medium was replaced by phenol red-free OptiMEM+4% FBS (Life Technology). […] Cells were incubated for 6 hr at 37° C./5% CO2 then NanoBRET furimazine substrate (Promega) was added to give a final concentration of 10 μM. After a short centrifugation the plates were read on an Envision (Perkin Elmer) plate reader equipped with a LUM/D600 Dual mirror, Lum 450/40 nm bandpass and D605 nm longpass filters, with a 0.2 sec reading to determine the BRET ratio. The % inhibition at each test concentration was calculated by normalising the BRET ratio to the appropriate high and low controls.

Where [3] appears, read: further generated data (Table 1b), 1 nM Trx-6xHis-BCL6, 0.5 nM anti-6xHis-Terbium cryptate.

For `CNC(=O)c1cc(Nc2ccc3c(c2)c(NC2CCC2OC)cc(=O)n3C)c(C#N)c(Cl)n1` (racemic) [Example 23a, rac-6-chloro-5-cyano 4-((4-(((1R,2R)-2-methoxycyclobutyl)amino)-1-methyl-2-oxo-1,2-dihydroquinolin-6-yl)amino)-N-methylpicolinamide or rac-6-chloro-5-cyano-4-((4-(((1R,2S)-2-methoxycyclobutyl)amino)-1-methyl-2-oxo-1,2-dihydroquinolin-6-yl)amino)-N-methylpicolinamide], the IC50 in assay [1] (setting [3]) was 0.38 µM; in assay [2], 6.76 µM.
`CN(C)C(=O)C1CCN(c2ncc(Cl)c(Nc3ccc4c(c3)c(NC3(C#N)CC3)cc(=O)n4C)n2)CC1` [Example 16b, 1-(5-chloro-4-((4-((1-cyanocyclopropyl)amino)-1-methyl-2-oxo-1,2-dihydroquinolin-6-yl)amino)pyrimidin-2-y1)-N,N-dimethylpiperidine-4-carboxamide]: the “HTRF pIC50” value in assay [1] (setting [3]) amounted to 6.37. For the same compound, the IC50 in assay [2] is 5.01 µM.
On the same counts, the results for `CC(Nc1cc(=O)n(C)c2ccc(Nc3cc(N4CCC(F)(F)CC4)ncc3Cl)cc12)c1ncccn1` (stereo not shown) [Example 15h, 6-((5-chloro-2-(4,4-difluoropiperidin-1-yl)pyridin-4-yl)amino)-1-methyl-4-((1-(pyrimidin-2-yl)ethyl)amino)quinolin-2(1H)-one] are 6.21 and 6.92 µM.
With `C[C@@H](Nc1cc(=O)n(C)c2ccc(Nc3nc(N4CCC(C(=O)N(C)C)CC4)ncc3Cl)cc12)C1CC1` [Example 12b, (R)-1-(5-chloro-4-((4-((1-cyclopropylethyl)amino)-1-methyl-2-oxo-1,2-dihydroquinolin-6-yl)amino)pyrimidin-2-y1)-N,N-dimethylpiperidine-4-carboxamide], the IC50 in assay [1] (setting [3]) was 0.302 µM; in assay [2] it was 1.29 µM.
Consider `Cn1c(=O)cc(NC2(c3ncccn3)CC2)c2cc(Nc3ccnc(Cl)c3C#N)ccc21` [Example 10u, 2-chloro-4-((1-methyl-2-oxo-4-((1-(pyrimidin-2-yl)cyclopropyl)amino)-1,2-dihydroquinolin-6-yl)amino)nicotinonitrile], for which the “HTRF pIC50” value in assay [1] (setting [3]) is on record as 6.19. In addition, the IC50 in assay [2] was 8.71 µM.
On the same counts, the results for `CC(Nc1cc(=O)n(C)c2ccc(Nc3nc(N4CCC(CC(=O)N(C)C)CC4)ncc3Cl)cc12)c1ncccn1` (stereo not shown) [Example 17e, 2-(1-(5-chloro-4-((1-methyl-2-oxo-4-((1-(pyrimidin-2-yl)ethyl)amino)-1,2-dihydroquinolin-6-yl)amino)pyrimidin-2-yl)piperidin-4-yl)-N,N-dimethylacetamide:formic acid (1:1)] are 6.34 and 3.47 µM.
Take `C[C@@H]1CN(c2ncc(Cl)c(Nc3ccc4c(c3)c(NC(C)(C)c3ncccn3)cc(=O)n4C)n2)C[C@H](C)O1` [Example 12f, 6-((5-chloro-2-((2S,6R)-2,6-dimethylmorpholino)pyrimidin-4-yl)amino)-1-methyl-4-((2-(pyrimidin-2-yl)propan-2-yl)amino)quinolin-2(1H)-one]: in assay [1] (setting [3]), the “HTRF pIC50” value turned out to be 6.57. In addition, the IC50 in assay [2] is 2.45 µM.
Regarding `CC(Nc1cc(=O)n(C)c2ccc(Nc3ccnc(Cl)c3Cl)cc12)c1ncccn1` (stereo not shown) [Example 6a, 6-[(2,3-Dichloro-4-pyridyl)amino]-1-methyl-4-(1-pyrimidin-2-ylethylamino)quinolin-2-one], the “HTRF pIC50” value is 6.56 in assay [1] (setting [3]) and 6.36 in assay [1] (initially generated data (Table 1a), 10 nM Trx-6xHis-BCL6, 1 nM anti-6xHis-Terbium cryptate). The IC50 in assay [2] was 2.82 µM.
Turning to `COCC(C)(C)Nc1cc(=O)n(C)c2ccc(Nc3nc(-n4nc(C)cc4C)ncc3Cl)cc12` [Example 14e, 6-((5-chloro-2-(3,5-dimethyl-1H-pyrazol-1-yl)pyrimidin-4-yl)amino)-4-((1-methoxy-2-methylpropan-2-yl)amino)-1-methylquinolin-2(1H)-one], the “HTRF pIC50” value in assay [1] (setting [3]) was determined as 6.54. In addition, in assay [2], the IC50 was 10 µM.
